Laboratory results published in ChEMBL document CHEMBL1201862, “PubChem BioAssay data set” (2004).
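Protocol summary: plate cells (96-well), add compound at 5 concentrations, incubate 48 h, interpolate endpoints linearly. At the GI50, growth is halved.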 Activity calls are given as the source filed them. Cut-off read from the data, not from the text of the source: active = GI50 up to about 1.1 µM and inactive = higher.

Key:
Assay in all cases: NCI anticancer screen, dose series, 48 h
[1] = tested on: HCC 2998
[2] = tested on: OVCAR-3
[3] = tested on: HCT-116
[4] = tested on: SK-MEL-2
[5] = tested on: SF-539
[6] = tested on: IGROV-1
[7] = tested on: UO-31
[8] = tested on: M14
[9] = tested on: SR
[10] = tested on: UACC-257
[11] = tested on: U-251
[12] = tested on: HOP-92
[13] = tested on: Malme-3M
[14] = tested on: RXF 393
[15] = tested on: T47D
[16] = tested on: OVCAR-4
[17] = tested on: LOX IMVI
[18] = tested on: NCI-H460
[19] = tested on: A498
[20] = tested on: MDA-MB-231

Measured: GI50

CC1(C)CN=C(Nc2ccc(F)c(Cl)c2)S1
inactive: [1] > 100 µM | [2] > 100 µM | [3] > 100 µM | [4] > 100 µM | [5] > 100 µM | [6] > 100 µM | [7] > 100 µM | [8] > 100 µM | [9] > 100 µM | [10] > 100 µM | [11] > 100 µM | [12] > 100 µM | [13] > 100 µM | [14] > 100 µM | [15] > 100 µM | [16] > 100 µM | [17] > 100 µM

NNC(=O)/C(=C/c1cccc([N+](=O)[O-])c1)NC(=O)c1ccccc1
inactive: [1] > 100 µM | [2] > 100 µM | [3] > 100 µM | [4] > 100 µM | [18] > 100 µM | [5] > 100 µM | [6] > 100 µM | [7] > 100 µM | [8] > 100 µM | [9] > 100 µM | [19] > 100 µM | [10] > 100 µM | [11] > 100 µM | [12] > 100 µM | [13] > 100 µM | [14] > 100 µM | [16] > 100 µM | [17] > 100 µM

NNC(=S)N/N=C/C(Cl)=C(\Cl)C(=O)O
inactive: [1] > 100 µM | [2] > 100 µM | [3] > 100 µM | [4] > 100 µM | [18] > 100 µM | [5] > 100 µM | [6] > 100 µM | [7] > 100 µM | [8] > 100 µM | [9] > 100 µM | [19] > 100 µM | [10] > 100 µM | [11] > 100 µM | [12] > 100 µM | [13] > 100 µM | [14] > 100 µM | [16] > 100 µM | [17] > 100 µM

COC1C=CC(C(=O)[N+]2=Cc3[nH]c4ccccc4c3CC2)O1 (stereo not drawn)
inactive: [1] 55.6 µM | [2] 83.4 µM | [3] > 100 µM | [4] > 100 µM | [18] 69.3 µM | [5] > 100 µM | [6] > 100 µM | [7] > 100 µM | [8] > 100 µM | [9] 30.5 µM | [19] > 100 µM | [10] > 100 µM | [11] 37.9 µM | [12] > 100 µM | [13] > 100 µM | [14] 61.5 µM | [16] > 100 µM | [17] > 100 µM

COc1ccc(N2C(=O)C3c4[nH]c5ccc(C)cc5c4C4CCC(C)CC4C3C2=O)cc1 (stereo not drawn)
inactive: [2] 58.1 µM | [3] 36.5 µM | [4] 33.3 µM | [18] > 100 µM | [5] 17.7 µM | [6] > 100 µM | [7] > 100 µM | [20] 15.1 µM | [8] > 100 µM | [9] 23.2 µM | [19] 21.6 µM | [10] > 100 µM | [11] 53.7 µM | [12] 76.2 µM | [13] > 100 µM | [14] 20.7 µM | [17] > 100 µM

N/C(=N\O)N/N=C/c1cccc(F)c1
inactive: [1] 84.9 µM | [2] 75.2 µM | [3] 41.6 µM | [4] 67.8 µM | [18] 26.4 µM | [5] 28.9 µM | [6] 47.9 µM | [7] 28.3 µM | [8] 21.2 µM | [9] 21.9 µM | [19] 40 µM | [10] 52.4 µM | [11] 36.1 µM | [12] 42.9 µM | [13] 37.3 µM | [14] 24.8 µM | [16] 85.9 µM | [17] 26.8 µM

COC(=O)[C@H](NC(=O)OC(C)(C)C)[C@H]1COC(C)(C)O1
inactive: [1] > 100 µM | [2] > 100 µM | [3] > 100 µM | [4] > 100 µM | [5] > 100 µM | [6] > 100 µM | [7] > 100 µM | [20] > 100 µM | [8] > 100 µM | [9] > 100 µM | [19] > 100 µM | [10] > 100 µM | [11] > 100 µM | [13] 40.1 µM | [14] > 100 µM | [16] > 100 µM | [17] > 100 µM

COC1OC(CBr)C(OC(=O)c2ccccc2)C(OS(=O)(=O)c2ccc(C)cc2)C1Br (stereo not drawn)
inactive: [1] > 100 µM | [2] > 100 µM | [3] > 100 µM | [4] > 100 µM | [18] > 100 µM | [5] > 100 µM | [6] > 10 µM | [7] > 100 µM | [8] > 100 µM | [9] > 100 µM | [19] > 100 µM | [10] > 100 µM | [11] > 100 µM | [12] 70.1 µM | [13] > 100 µM | [14] > 100 µM | [16] > 100 µM | [17] > 100 µM

CCN1C(=O)N(C)C(O)c2c1nc1ccccn1c2=O (stereo not drawn)
inactive: [1] 20.3 µM | [2] 26.1 µM | [3] 28.6 µM | [4] 22.2 µM | [18] 20.6 µM | [5] 24.6 µM | [6] 32.7 µM | [7] 47.6 µM | [8] 32.1 µM | [9] 29.1 µM | [19] 25.6 µM | [10] 40.1 µM | [11] 30.8 µM | [12] 25.6 µM | [13] 38.6 µM | [14] 23 µM | [16] 33 µM | [17] 17.5 µM

CC(=O)Oc1cc(-c2oc3cc(OC(C)=O)c(C4OC(CO)C(O)C(O)C4O)c(OC(C)=O)c3c(=O)c2O)c(OC(C)=O)cc1O (stereo not drawn)
inactive: [1] > 100 µM | [2] > 100 µM | [3] > 100 µM | [4] > 100 µM | [18] > 100 µM | [6] > 100 µM | [7] > 100 µM | [20] > 100 µM | [8] > 100 µM | [10] > 100 µM | [11] > 100 µM | [12] 26.3 µM | [13] > 100 µM | [14] > 100 µM | [16] > 100 µM | [17] > 100 µM

CC(=O)OCC(=O)[C@@]12OC(C)(C)O[C@@H]1C[C@H]1[C@@H]3CC(C=O)=C4C=C(OCCCl)CC[C@]4(C)[C@@]3(F)[C@@H](O)C[C@@]12C [FORMOCORTAL]
inactive: [1] 15.3 µM | [2] 25.9 µM | [3] 10.4 µM | [4] 20.7 µM | [18] 14.1 µM | [5] 17.6 µM | [6] 32.7 µM | [7] 32.2 µM | [8] 20.6 µM | [9] 13 µM | [19] 21.9 µM | [10] 23.4 µM | [11] 14.2 µM | [12] 20.9 µM | [13] 23.6 µM | [14] 5.93 µM | [16] 19.9 µM | [17] 25.8 µM
